One data set relates to patients. Briefly: Patient case examples (presbyopia, glare/starbursts/halos, night vision, night myopia). The data set is classed as in vivo, human. An excerpt:
A person complains of an inability to focus on text when reading up close, which is interfering with their ability of read documents at work, as well as reading books and news articles. The problem seems worse under lower lighting conditions, such as the dim lighting in a restaurant. The visual degradation had been occurring over time, but in recent months, the person's inability to focus on text when read close up had been more pronounced such as to interfere with their quality of life. The person is seen by an ophthalmologist who performs a visual acuity test in which they are asked to read lines of letters on an eye chart without the assistance of glasses or contacts (neither of which they wear anyway). They find that they are only able to read the first four lines on the chart, when a person with normal vision should be able to read six. Based on the person's age and results of the test, they are diagnosed with presbyopia. The person is reluctant to have to obtain reading glasses or wear contact lenses and asks if there are any other medical treatments. They are instructed to administer to their eyes a composition comprising a compound of Formula I one or two times a day. Starting with the first couple of doses, the patient reports improved vision when reading text up close. On a follow-up visit to the ophthalmologist, they are again asked to read lines of letters on an eye chart (they are still administering the composition with the compound of Formula I to their eyes), and this time they are able to read the first six lines, a two line improvement over their previous results prior to administering the compound of Formula I to their eyes.
A person has noticed that their near vision has been deteriorating over the last few years such that they often have to hold reading material almost out to arm's length in order to be able to read the print, especially when the ambient light is dim. The person visits their ophthalmologist who performs a basic eye exam and refraction assessment. Based on the examination, the ophthalmologist prescribes a composition comprising brimonidine to constrict the person's pupil to treat the presbyopia, and the person is instructed to administer the composition to their eyes daily as needed.
A person decides to undergo LASIK surgery. The surgeon who will perform the surgery evaluates the patient and determines that they are a suitable candidate for the surgery, but is told that side effects of the surgery include visual glare, visual starbursts, and visual halos, especially at night. The surgeon performs the surgery without any noticeable issues and the patient is discharged. A day later the patient drives home during the evening for the first time since the surgery and notices what appear to be starbursts of light emanating from the headlights and rear lights of other cars, as well as from street lights, and also glare coming from those light sources that interfere with is vision. The patient also observes diffuse rings around some of the street lights and illuminated street signs. Upon consultation, the surgeon confirms that such visual disturbances are indeed the visual glare, visual starburst, and visual halo side effects often seen after LASIK surgery, and the patient is prescribed a composition comprising the compound of Formula I, which the patient administers to their eyes in accordance with the package instructions.
A person has noticed that they are having issues seeing the street names on street signs with good contrast when they are driving at night. The person consults with their ophthalmologist who, upon hearing the patient's description and performing a visual acuity test under low light conditions, prescribes a composition comprising the compound of Formula I, which the patient administers to their eyes in accordance with the package instructions. […]

Data set [1] relates to Dutch Belted rabbits. Put plainly: In vivo rabbit miosis model, low-light (scotopic) conditions. As to conditions: for animals with greater than 2.5 mm reduction in pupil size from baseline: 0.1% w:v, scotopic (<10 lux), n=6; for miotic efficacy compared with brimonidine: single topical dose, low light, FIG. 1 to FIG. 4. As to the method:
(§1) Female Dutch Belted rabbits (Covance, Princeton, New Jersey) weighing between 2-4 kg were used for these studies. […] For topical dosing, eye drops (volume=35 μl) were instilled into the lower conjunctival sac of the test eye.
Pupil diameter was measured in both the treated and untreated eye with an Optistick to the nearest 0.5 mm. […] All studies were done under low-light conditions in which a red photography light is used providing 2-10 Lux of light.

How the values of data set [2] were obtained:
Aliquots of the PBS only curve were quenched at time zero to be used as stability controls and calibration standards. Following centrifugation, samples were analyzed by LC-MS/MS bioanalysis. Back-calculated concentrations using the assay PBS curve were used for binding and stability calculations.

Data set [3] has as its system Dutch Belted rabbits. Briefly: In vivo rabbit miosis model, room light conditions. The settings on record: room lighting conditions, FIG. 5. How it is done: Percentage amounts are % w:v.
as §1
Pupil diameter was measured in both the treated and untreated eye with an Optistick to the nearest 0.5 mm. In all studies, baseline pupil diameter measurements were taken prior to drug administration and then at 0.5, 1, 2, 3 and 4 hours post dose. […]

The subject of another data set is presbyopic patients. As to conditions: different lighting conditions, McDonald II et al.; cited from earlier work.

On to `Cc1c(N=C2NCCN2)ccc2[nH]cnc12` [Compound 1], for which the “ability to focus on distant objects at night” value in the data set on patients (person with night myopia) is recorded as “as good as their ability to do so during the day”. For the same compound, the “administrations needed per day to treat presbyopia” value in the data set with patients (person with presbyopia) is recorded as “once (or sometimes twice)”. In addition, the “improvement in lines read on eye chart” value with patients (person with presbyopia, composition one or two times a day) is on record as “two”. For the same compound, the night vision contrast result in the data set on patients (person, driving at night) is “much better contrast”. Also, in the data set with patients (person, night driving), the “visual glare, starbursts and halos after LASIK” value is on record as “significantly reduced”. Further, the “animals with greater than 2.5 mm reduction in pupil size from baseline” value in the data set with Dutch Belted rabbits [1] (after 6 hours) is reported as “more than half”; in the data set with Dutch Belted rabbits [1] (two hours after dosing), “virtually all”. For the same compound, the “miotic efficacy compared with brimonidine” value with Dutch Belted rabbits [1] is listed as “greater magnitude of pupil size reduction”. In the data set on Dutch Belted rabbits [1] (topical dose, FIG. 6), the “pupil constriction at 9 hours after dosing” value is reported as “significant pupil constriction”. Further, the “effect on pupil constriction compared to Compound 3” value in the data set on Dutch Belted rabbits [1] (topical dose, FIG. 7) was “greater effect”. Further, the “melanin binding (assessment in words)” value in data set [2] is on record as “no significant melanin binding”. For the same compound, in the data set with Dutch Belted rabbits [3], the “miotic action compared with brimonidine (peak pupil constriction and duration of action)” value is listed as “greater miotic action than brimonidine”.
Consider `CCc1c(N=C2NCCN2)ccc2[nH]cnc12` [Compound 2, reference compound], for which the “miotic efficacy compared with brimonidine” value in the data set on Dutch Belted rabbits [1] is listed as “much less than brimonidine”.
Still for that read-out and setting: next, `Brc1c(N=C2NCCN2)ccc2[nH]cnc12` [Compound 3, reference compound]: “much less than brimonidine”.
As to `Brc1c(NC2=NCCN2)ccc2nccnc12` [Compound 4, brimonidine, reference compound], the “average pupil size after brimonidine” value with presbyopic patients was 3.4 mm. For the same compound, the “administrations needed per day to treat presbyopia” value in the data set on patients (person with presbyopia) is listed as “three”. Also, the figures for the “animals with greater than 2.5 mm reduction in pupil size from baseline” value in the data set with Dutch Belted rabbits [1] (after 6 hours) and in the data set with Dutch Belted rabbits [1] (half hour after dosing) were “virtually none” and “much less than half”, respectively. The “melanin binding (assessment in words)” value in data set [2] was “much more significant binding”.
